From patent publication US3988466A, “Prevention of gastric lesions” (priority 1973, dated 1976)

Experiments:
[1] = test system: aspirin-induced gastric lesions in pylorus-ligated rats; assay: Effect of L-glutamine on aspirin-induced gastric lesions in pylorus-ligated rats (Experiment 1); format: in vivo, male Donryu strain rats; conditions: for Ulcer index / Inhibition: aspirin 100 mg/kg oral; for Ulcer index: 7 hours; for Inhibition: vs control ulcer index
Method: In this Experiment, 6 groups of male Donryu strain rats are used. The animals are fasted for 24 hours but water is allowed ad libitum. Under ether anesthesia, the pylorus is ligated according to the standard method of Shay et al. Five groups are treated with graded doses of L-glutamine suspended in 1% carboxymethylcellulose solution by oral administration immediately after the pylorus ligation. A sixth group (control) is treated with 5 ml/kg of 1% carboxymethylcellulose solution alone. […] After a 7-hour interval during which the animals are not allowed feed or water, the animals are killed by an overdose of ether. […] The stomach is removed and slightly inflated by injection of 1% formalin solution through the esophagel junction. […] The stomach is opened along the greater curvature and the length of lesions (dark blue areas against pale blue background) in the glandular portion is measured under a dissecting microscope (10x) provided with a square grid. […] The ulcer index expressed by mm indicates the mean value of the sum of the length of the lesions per animal of each group. The level of significance is calculated according to Student t-test.

[2] = test system: indomethacin-induced gastric lesions in pylorus-ligated rats; assay: Effect of L-glutamine on indomethacin-induced gastric lesions in pylorus-ligated rats (Experiment 2); format: in vivo, male Donryu strain rats; conditions: for Ulcer index / Inhibition: indomethacin 20 mg/kg i.p.; for Inhibition: vs control ulcer index
Method: In this Experiment, 8 groups of male Donryu strain rats are used. The animals are fasted for 24 hours but water is allowed ad libitum. Under ether anesthesia, the pylorus is ligated according to the standard method of Shay et al. Seven groups are treated with graded doses of L-glutamine suspended in 1% carboxymethylcellulose solution by oral administration immediately after the pylorus ligation. An eighth group (control) is treated with 5 ml/kg of 1% carboxymethylcellulose solution alone. Following a control period of 10 minutes, the animals are treated with 20 mg/kg of indomethacin suspended in a trace amount of Tween 80 (trade name of Atlas Chemical Industries Inc., U.S.A.) by intraperitoneal injection. Thereafter, the animals are treated in the same manner as described in Experiment 1 and the length of lesions is measured.

[3] = test system: aspirin-induced gastric lesions in pylorus-ligated rats; assay: Effect of various amino acids on aspirin-induced gastric lesions in pylorus-ligated rats (Experiment 3); format: in vivo, male Donryu strain rats
[4] = pH of amino acids in 1% carboxymethylcellulose solution; format: physicochemical; conditions: 150 mg/ml in 1% carboxymethylcellulose solution
Method: The pH values of the amino acids are also determined. The amino acids are separately dissolved or suspended in 1% carboxymethylcellulose solution at a concentration of 150 mg/ml and the pH is measured on an Hitachi pH meter (product of Hitachi Ltd., Japan).

[5] = test system: yeast-induced fever in rats; assay: Effect of L-glutamine on antipyretic activity of aspirin in rats (Experiment B); format: in vivo, male Wistar strain rats; conditions: for Rectal temperature: L-glutamine 1000 mg/kg oral
Method: In this Experiment, male Wistar strain rats weighing about 90-100 g are treated with 2.5 ml/rat of a suspension of yeast (Brewers Yeast, product of Nutritional Biochem. Co., U.S.A.) in physiological saline (concentration: 250 mg/ml), by subcutaneous injection in the back, according to the method of Gleen et al [Gleen, E. M. et al: J. Pharma. Exp. Therp., 155, 157 (1967)]. The animals are then fasted. The animals showing an increased rectal temperature of 38° C or more after 17 hours are selected for use in experiment. […] As a control, one group is treated with 105 ml of 1% carboxymethylcellulose solution alone. After the treatment, the rectal temperature is measured at the time indicated.

[6] = test system: acetic acid-induced writhing response in mice; assay: Effect of L-glutamine on analgesic activity of aspirin in mice (Experiment C); format: in vivo, male dd strain mice; conditions: presence of L-glutamine
Method: In this Experiment, 3 groups of male dd strain mice weighing 19-21 g are used.
As a control, the third group is treated only with 1% carboxymethylcellulose solution. After a control period of one hour, the animals are treated with 0.2 ml of 0.7% acetic acid solution in physiological saline by intraperitoneal injection, according to the method of Koster et al. [Koster, R. et al: Fed. Proc., 18, 412 (1959)]. Starting 10 minutes after the administration of acetic acid, the number of writhing reaction occurred in 10 minutes is counted.

[7] = test system: carageenin-induced paw edema in rats; assay: Effect of L-glutamine on anti-inflammatory activity of aspirin in rats (Experiment D); format: in vivo, male Donryu strain rats
Method: As a control, a sixth group is treated with 1% carboxymethylcellulose solution. After one hour, the animals are treated with a phlogistic agent of 0.1 ml of 1% carrageenin solution by subcutaneous injection in a hind paw, according to the method of Yamasaki et al. [Yamasaki, H. et al: Folia Pharm. Jap., 63, 302 (1967)]. Swelling of the paw is measured 5 hours after the administration of the phlogistic agent.

experimental ulcers = conditions: induced by stress, pylorus ligation, histamine, reserpine or cortisone; cited from earlier work
[8] = L-glutamine 1000 mg/kg oral, 5 hours after phlogistic agent

Amino acid pH [4]: 6.65
Compound: NC(=O)CC[C@H](N)C(=O)O [L-glutamine]
Ulcer index ([1]; L-glutamine 62.5 mg/kg oral): 57.6±5.6 mm
Inhibition ([1]; L-glutamine 62.5 mg/kg oral): -5.0%
gastric lesions preventive effect ([1]; L-glutamine 62.5 mg/kg, aspirin 100 mg/kg): no such effect is observed
Ulcer index ([1]; L-glutamine 125 mg/kg oral): 27.9±4.7 mm
Inhibition ([1]; L-glutamine 125 mg/kg oral): 49.0%
Ulcer index ([1]; L-glutamine 250 mg/kg oral): 15.0±3.4 mm
Inhibition ([1]; L-glutamine 250 mg/kg oral): 72.6%
Ulcer index ([1]; L-glutamine 500 mg/kg oral): 18.0±3.1 mm
Inhibition ([1]; L-glutamine 500 mg/kg oral): 67.1%
Ulcer index ([1]; L-glutamine 1,000 mg/kg oral): 3.5±1.5 mm
Inhibition ([1]; L-glutamine 1,000 mg/kg oral): 93.6%
animals with stomachs quite clear and no mucosal defect ([1]; L-glutamine 1000 mg/kg, aspirin 100 mg/kg): three out of 12
effect on the prevention of indomethacin-induced gastric lesions ([2]; L-glutamine 15.6 mg/kg): no effect
Ulcer index ([2]; L-glutamine 15.6 mg/kg oral): 12.1±3.5 mm
Inhibition ([2]; L-glutamine 15.6 mg/kg oral): 3.2%
inhibition of gastric lesions (in words) ([2]; L-glutamine 31.3 mg/kg): fairly inhibits the gastric lesions but the inhibition is not significant
Ulcer index ([2]; L-glutamine 31.3 mg/kg oral): 5.0±1.1 mm
Inhibition ([2]; L-glutamine 31.3 mg/kg oral): 60.0%
prevention of indomethacin-induced gastric lesions ([2]; L-glutamine 62.5 mg/kg - 1000 mg/kg): effective for the prevention of indomethacin-induced gastric lesions
Ulcer index ([2]; L-glutamine 62.5 mg/kg oral): 2.6±0.8 mm
Inhibition ([2]; L-glutamine 62.5 mg/kg oral): 79.2%
Ulcer index ([2]; L-glutamine 125 mg/kg oral): 3.9±1.5 mm
Inhibition ([2]; L-glutamine 125 mg/kg oral): 68.8%
Ulcer index ([2]; L-glutamine 250 mg/kg oral): 2.4±0.4 mm
Inhibition ([2]; L-glutamine 250 mg/kg oral): 80.8%
Ulcer index ([2]; L-glutamine 500 mg/kg oral): 1.6±0.7 mm
Inhibition ([2]; L-glutamine 500 mg/kg oral): 87.2%
Ulcer index ([2]; L-glutamine 1,000 mg/kg oral): 0.5±0.3 mm
Inhibition ([2]; L-glutamine 1,000 mg/kg oral): 96.0%
inhibition in vivo at 750 mg/kg ([3]; Rattus norvegicus, po, read-out: Inhibition): 87.8%
Ulcer index ([3]; amino acid 750 mg/kg oral, aspirin by gastric intubation): 5.5±2.0 mm
Rectal temperature ([5]; 0 hour): 38.6±0.2 °C
Rectal temperature ([5]; 1 hour): 38.5±0.2 °C
Rectal temperature ([5]; 2 hours): 38.2±0.3 °C
Rectal temperature ([5]; 4 hours): 38.1±0.4 °C
Rectal temperature ([5]; 6 hours): 38.2±0.3 °C
influence on antipyretic activity of aspirin ([5]; presence of L-glutamine): not substantially influenced
influence on analgesic activity of aspirin [6]: not substantially influenced
Suppression ratio [7, 8]: 5.4%
Swelling ratio [7, 8]: 117.2±4.7%
influence on anti-inflammatory activity of aspirin ([7]; presence of L-glutamine): not substantially influenced
prevention or treatment of certain experimental ulcers (experimental ulcers): effective for the prevention or treatment of certain experimental ulcers
